Experimental data taken from paper PMC12789660, “Mycobacterial respiratory chain enzymes and growth are inhibited by decylubiquinone” (Communications Biology, 2025).

Legend:
[1] = target: T1, QcrB subunit of CIII2 (CIII2CIV2 supercomplex) (Mycolicibacterium smegmatis, UniProt A0R052); experiment: cryo-EM structure, […] Å; DCQ modeled in oxidized state at […] occupancy (shared with MQ); format: binding; design: gene MSMEG_4263; intact CIII2CIV2 supercomplex purified in GDN, C-terminally FLAG-tagged on QcrB; with QcrA (Rieske), QcrC and CIV subunits of the CIII2CIV2 supercomplex
cytochrome bd-I = target: T2, cytochrome bd-I (Mycolicibacterium smegmatis, UniProt A0QXA8); experiment: O2 reduction rate, Clark-type electrode; turnover at […]; format: biochemical
T2 construct: gene MSMEG_3233; purified cytochrome bd-I (cydAB, Strep-tagged on CydB) in DDM; with CydB
T2 sequence (A0QXA8 1-487): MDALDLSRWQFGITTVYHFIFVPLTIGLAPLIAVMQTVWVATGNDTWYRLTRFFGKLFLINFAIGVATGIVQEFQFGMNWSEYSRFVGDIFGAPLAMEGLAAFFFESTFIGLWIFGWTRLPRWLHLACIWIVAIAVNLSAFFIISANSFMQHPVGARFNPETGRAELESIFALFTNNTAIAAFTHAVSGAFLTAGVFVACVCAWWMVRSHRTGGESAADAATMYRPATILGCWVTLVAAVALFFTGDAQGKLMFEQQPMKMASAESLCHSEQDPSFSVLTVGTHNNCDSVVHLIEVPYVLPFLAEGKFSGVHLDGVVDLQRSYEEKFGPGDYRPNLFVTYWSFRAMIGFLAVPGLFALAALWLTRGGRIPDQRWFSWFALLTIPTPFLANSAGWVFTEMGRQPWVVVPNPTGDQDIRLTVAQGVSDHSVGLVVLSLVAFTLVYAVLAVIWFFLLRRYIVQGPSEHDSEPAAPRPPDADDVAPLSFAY
T2 sequence (A0QXA7 1-350 partner): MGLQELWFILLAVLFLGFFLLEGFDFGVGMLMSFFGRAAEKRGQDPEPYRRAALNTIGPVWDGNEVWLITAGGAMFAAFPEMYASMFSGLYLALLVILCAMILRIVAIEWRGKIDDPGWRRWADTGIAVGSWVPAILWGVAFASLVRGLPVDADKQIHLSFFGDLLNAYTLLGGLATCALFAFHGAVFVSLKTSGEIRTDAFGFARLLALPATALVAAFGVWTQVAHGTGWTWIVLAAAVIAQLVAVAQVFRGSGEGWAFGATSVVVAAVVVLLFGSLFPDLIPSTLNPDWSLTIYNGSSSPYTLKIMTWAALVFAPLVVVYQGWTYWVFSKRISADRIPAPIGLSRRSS

[2] = target: T1, QcrB subunit of CIII2 (CIII2CIV2 supercomplex); experiment: O2 reduction rate, Clark-type oxygen electrode; turnover […] s^−[…] at […]; format: biochemical; design: gene MSMEG_4263; intact purified CIII2CIV2 supercomplex, C-terminally FLAG-tagged on QcrB; with QcrA (Rieske), QcrC and CIV subunits of the CIII2CIV2 supercomplex
[3] = target: T3, QcrB subunit of CIII2 (CIII2CIV2 supercomplex), AAA variant (Mycolicibacterium smegmatis, UniProt A0R052, F153A/M305A/M337A); experiment: biochemical
T3 construct: gene MSMEG_4263

[4] = target: T1, QcrB subunit of CIII2 (CIII2CIV2 supercomplex); experiment: DMNQH2 oxidation:O2 reduction activity, Clark-type oxygen electrode; format: biochemical; design: gene MSMEG_4263; intact purified CIII2CIV2 supercomplex, C-terminally FLAG-tagged on QcrB; with QcrA (Rieske), QcrC and CIV subunits of the CIII2CIV2 supercomplex

## CCCCCCCCCCC1=C(C)C(=O)C(OC)=C(OC)C1=O [DCQ, decylubiquinone]
[1]
  cryo-EM structure, 2.5 Å; DCQ modeled in oxidized state at 50% occupancy (shared): The DCQ density is seen in the more distal Qo1b position, i.e., the same as that of the native MQ

## Cc1c(C)c(O)c2ccccc2c1O [DMNQH2]
Cytochrome bd-I
  O2 reduction rate, Clark-type electrode; turnover at 300 μM: 18 ± 1 s⁻¹
[2]
  O2 reduction rate, Clark-type oxygen electrode; turnover 80 ± 10 s^-1 at 100 μM: 80 ± 10 s⁻¹

## CCCCCCCCCCc1c(C)c(O)c(OC)c(OC)c1O [DCQH2]
[3]
  IC50: ~130 µM
[4]
  IC50: ~70 µM
